Calls of active or inactive are those of the source. No cut-off for these calls is given here.
How the values were obtained:
[1] = molecular target: T1, Neuronal acetylcholine receptor subunit alpha-7 (Homo sapiens, UniProt P36544); assay: Antagonist activity at human alpha7 nAChR expressed in Xenopus oocyte assessed as inhibition of ACh-induced current at 10 uM after 30 secs by electrophysiological assay; assay type: functional
[2] = molecular target: T1, Neuronal acetylcholine receptor subunit alpha-7; assay: Agonist activity at human alpha7 nAChR expressed in Xenopus oocyte assessed as stimulation of ACh-induced current at 10 uM after 30 secs by electrophysiological assay; assay type: functional
[3] = molecular target: T1, Neuronal acetylcholine receptor subunit alpha-7; assay: Partial agonist activity at human alpha7 nAChR expressed in Xenopus oocyte assessed as stimulation of ACh-induced current after 30 secs by electrophysiological assay; assay type: functional
[4] = molecular target: T1, Neuronal acetylcholine receptor subunit alpha-7; assay: Antagonist activity at human alpha7 nAChR expressed in Xenopus oocyte assessed as inhibition of ACh-induced current after 30 secs by electrophysiological assay; assay type: functional
[5] = molecular target: T2, Neuronal acetylcholine receptor; alpha3/beta2 (Homo sapiens) (UniProt P17787+P32297); assay: Negative allosteric modulation at human recombinant alpha3beta 2 nAChR expressed in Xenopus oocyte assessed as inhibition of ACh-induced current at 100 uM after 30 secs by electrophysiological assay
[6] = molecular target: T2, Neuronal acetylcholine receptor; alpha3/beta2 (Homo sapiens); assay: Positive allosteric modulation at human recombinant alpha3beta 2 nAChR expressed in Xenopus oocyte assessed as stimulation of ACh-induced current at 10 uM after 30 secs by electrophysiological assay
[7] = molecular target: T2, Neuronal acetylcholine receptor; alpha3/beta2 (Homo sapiens); assay: Positive allosteric modulation at human recombinant alpha3beta 2 nAChR expressed in Xenopus oocyte assessed as inhibition of ACh-induced current at 100 uM after 30 secs by electrophysiological assay

T1 sequence (P36544 whole entry): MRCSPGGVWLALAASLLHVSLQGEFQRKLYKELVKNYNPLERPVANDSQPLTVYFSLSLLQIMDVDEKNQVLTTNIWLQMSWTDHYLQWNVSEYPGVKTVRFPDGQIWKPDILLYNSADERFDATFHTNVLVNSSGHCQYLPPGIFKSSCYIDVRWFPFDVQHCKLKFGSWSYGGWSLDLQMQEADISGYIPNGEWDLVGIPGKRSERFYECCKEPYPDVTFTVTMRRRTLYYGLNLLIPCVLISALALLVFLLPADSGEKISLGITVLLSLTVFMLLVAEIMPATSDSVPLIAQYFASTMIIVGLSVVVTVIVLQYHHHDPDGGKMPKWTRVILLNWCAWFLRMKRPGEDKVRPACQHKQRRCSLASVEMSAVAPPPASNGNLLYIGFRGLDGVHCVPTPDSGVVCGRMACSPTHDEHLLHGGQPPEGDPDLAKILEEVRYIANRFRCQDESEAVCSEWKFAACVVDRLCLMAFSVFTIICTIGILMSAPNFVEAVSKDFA

SMILES | inhibition [1] [%] | Activity [2] | other results
CN1CC2CCC1C(CNC(=O)c1ccccc1)C2 (racemic; form 1) | 68 |  | 
CN1CC2CCC1C(CNC(=O)c1ccc(Cl)cc1)C2 (racemic; form 2) | 61 | inactive | 
O=C(N[C@@H]1CCN(Cc2ccccc2)C1)c1ccc2ncsc2c1 | 59 |  | 
CCC#CCN1CCC[C@H]1COC(=O)c1ccc2ncsc2c1 | 60 | inactive | 
O=C(c1ccc(Cl)cc1)N1CCCN2CCC[C@H]2C1 | 57 |  | 
CN(C)CCNC(=O)C1COc2ccccc2O1 (stereo not drawn) | 52 |  | 
Cc1ccc(C(=O)NCC23CCCN2CCC3)cc1 | 25 |  | 
CN1CC2CCC1C(CNC(=O)c1ccc(Br)cc1)C2 (racemic; form 1) | 71 |  | 
O=C(Oc1ccc(Br)cc1)N1CCN2CCC1CC2 |  |  | Activity [3]: Active
CC(C)N1CCN(C(=O)c2ccc(Cl)cc2)CC1 | 84 |  | 
O=C(NCC1=CC2CCN1CC2)c1ccc(Br)cc1 | 30 | inactive | 
O=C(NCC1CC2CCN1CC2)c1ccccc1 (racemic) | 53 |  | 
O=C(C1COc2ccccc2O1)N1CCCN2CCC[C@H]2C1 (stereo partly drawn) | 54 |  | 
CC(C)N1CCCN(C(=O)c2ccc3c(c2)OCCO3)CC1 |  | inactive | 
CC(C)N1CCCCN(C(=O)c2ccc(Cl)cc2)CC1 | 35 |  | 
CC(C)N1CCN(C(=O)c2ccc3c(c2)OCCO3)CC1 | 81 |  | 
O=C(c1ccc2c(c1)OCCO2)N1CCCN2CCC[C@@H]2C1 | 40 | inactive | 
CN1CC2CCC1C(CNC(=O)c1ccccc1)C2 (racemic; form 2) | 54 | inactive | 
CN1CC2CCC1C(CNC(=O)c1ccc(F)cc1)C2 (racemic; form 1) | 52 |  | 
O=C(NCC1=CC2CCN1CC2)c1ccc2c(c1)OCCO2 | 50 | inactive | 
C[C@H]1CN2CCCC[C@@H]2CN1C(=O)c1ccc(Cl)cc1 | 65 |  | 

SMILES | inhibition [1] [%] | Activity [2] | other results
CCC#CCN1CCC[C@H]1CNC(=O)c1ccc2ncsc2c1 | 88 | inactive | IC50 [4]: 45 µM
O=C(NCC12CCCN1CCC2)c1ccc(Br)cc1 | 9 |  | 
O=C(N[C@H]1CCN(C2CCCCC2)C1)c1ccc2ncsc2c1 | 56 | inactive | 
C[C@H]1CN2CCCC[C@@H]2CN1C(=O)c1ccc2ncsc2c1 (racemic) | 61 |  | 
O=C(NCC12CCCN1CCC2)C1COc2ccccc2O1 (stereo not drawn) | 29 |  | 
O=C(NCC12CCCN1CCC2)c1ccc(Cl)cc1 | 32 |  | Activity [5]: Active; Activity [6]: Active
O=C(NCC12CCCN1CCC2)c1ccc2c(c1)OCCO2 | 33 |  | 
CN(C)CCNC(=O)c1ccc2c(c1)OCCO2 | 87 |  | 
CC(C)N1CCC[C@@H]1CNC(=O)Oc1ccc(Br)cc1 | 27 | inactive | 
CCN1CCC[C@@H]1CNC(=O)c1ccc2ncsc2c1 | 53 | inactive | 
O=C(c1ccc2c(c1)OCCO2)N1CCCN2CCC[C@H]2C1 | 56 |  | 
CC(C)N1CCN(C(=O)Oc2ccc(Br)cc2)CC1 | 82 |  | 
O=C(Oc1ccc(Br)cc1)N1CCCN2CCC[C@@H]2C1 | 36 | inactive | 
CN1CC2CCC1C(CNC(=O)c1ccc3c(c1)OCCO3)C2 (racemic; form 2) | 77 | inactive | 
CC(C)N1CCN(C(=O)c2ccc3ncsc3c2)CC1 | 85 |  | 
CN1CC2CCC1C(CNC(=O)c1ccc(F)cc1)C2 (racemic; form 2) | 55 | inactive | 
CN(C)CCNC(=O)c1ccc(Cl)cc1 | 68 |  | 
CN1CCC2CC1CN(C(=O)Oc1ccc(Br)cc1)C2 (racemic) |  |  | Activity [5]: Active; Activity [6]: Active
CN1CC2CCC1C(CNC(=O)c1ccc(Cl)cc1)C2 (racemic; form 1) | 60 |  | 
CC(C)N1CCN(C(=O)C2COc3ccccc3O2)CC1 (stereo not drawn) | 90 |  | 
CN(C)CCNC(=O)c1ccc2ncsc2c1 | 94 |  | 

SMILES | inhibition [1] [%] | Activity [2] | other results
CC(C)N1CCCCN(C(=O)c2ccc3ncsc3c2)CC1 | 40 |  | 
O=C(NCC1=CC2CCN1CC2)c1ccccc1 | 35 | inactive | 
O=C(NCC12CCCN1CCC2)c1ccccc1 | 26 |  | Activity [5]: Active; Activity [6]: Active
C[C@H]1CN2CCCC[C@@H]2CN1C(=O)c1ccc2c(c1)OCCO2 | 75 |  | 
O=C(NCC12CCCN1CCC2)c1ccc2ncsc2c1 | 34 |  | 
O=C(N[C@@H]1CCCC[C@H]1N1CCCCC1)Oc1ccc(Br)cc1 (racemic) | 34 |  | IC50 [4]: 10 µM
CCC#CCN1CCC[C@@H]1CNC(=O)c1ccc(Cl)cc1 | 21 |  | 
CC1CCCC1N1CC[C@H](NC(=O)c2ccc3ncsc3c2)C1 (stereo partly drawn) | 20 |  | IC50 [4]: 5 µM
CC1CCCC1N1CCC(NC(=O)c2ccc3ncsc3c2)CC1 (stereo not drawn) | 65 | inactive | 
CCN1CCC[C@@H]1CNC(=O)c1ccc(Cl)cc1 | 42 | inactive | 
O=C(NC[C@H]1CCCN1C1CCCCC1)c1ccc2ncsc2c1 | 71 | inactive | 
CCC#CCN1CCC[C@@H]1CNC(=O)Oc1ccc(Br)cc1 | 72 |  | 
O=C(NCC1=CC2CCN1CC2)Oc1ccc(Br)cc1 | 100 | inactive | 
O=C(c1ccc2ncsc2c1)N1CCCN2CCC[C@H]2C1 | 53 |  | 
O=C(c1ccccc1)N1CCCN2CCC[C@@H]2C1 | 55 | inactive | 
O=C(c1ccc(F)cc1)N1CCCN2CCC[C@@H]2C1 | 58 | inactive | 
CCC#CCN1CCC[C@@H]1CNC(=O)c1ccc2ncsc2c1 | 13 |  | IC50 [4]: 40 µM
CCC#CCN1CCC[C@@H]1CNC(=O)c1ccc2c(c1)OCCO2 | 96 |  | 
O=C(c1ccc(Br)cc1)N1CCCN2CCC[C@@H]2C1 | 40 | inactive | 
O=C(NCC1CC2CCN1CC2)Oc1ccc(Br)cc1 (racemic) | 80 |  | 
O=C(NCC1CC2CCN1CC2)c1ccc2c(c1)OCCO2 (racemic) | 79 |  | 

SMILES | inhibition [1] [%] | Activity [2] | other results
CC(C)N1CCCCN(C(=O)C2COc3ccccc3O2)CC1 (stereo not drawn) | 37 |  | 
CCCC#CCN1CC[C@H](NC(=O)c2ccc3ncsc3c2)C1 | 81 | inactive | 
CCC#CCN1CCC[C@@H]1CNC(=O)C1COc2ccccc2O1 (stereo partly drawn) | 74 |  | 
O=C(NCC12CCCN1CCC2)c1cccc(Cl)c1 | 32 |  | 
O=C(Oc1ccc(Br)cc1)N1CCCN2CCC[C@H]2C1 | 62 |  | 
O=C(N[C@H]1CCN(Cc2ccccc2)C1)c1ccc2ncsc2c1 | 94 | inactive | 
CC(C)N1C[C@H]2C[C@@H]1CN2C(=O)c1ccc(Cl)cc1 | 69 | inactive | 
O=C(NCC1=CC2CCN1CC2)c1ccc(F)cc1 | 36 | inactive | 
CN1CC2CCC1C(CNC(=O)c1ccc(Br)cc1)C2 (racemic; form 2) | 66 | inactive | 
CC1CCCC1N1CC[C@H](NC(=O)c2ccc(Cl)cc2)C1 (stereo partly drawn) | 33 |  | 
CCCN1CCC[C@@H]1CNC(=O)c1ccc(F)cc1 | 22 | inactive | 
CCN1CCC[C@@H]1CNC(=O)Oc1ccc(Br)cc1 | 53 | inactive | 
O=C(NCC12CCCN1CCC2)c1ccccc1Cl | 35 |  | 
CCN1CC[C@H](NC(=O)c2ccc3ncsc3c2)C1 | 139 | inactive | 
O=C(NCC1=CC2CCN1CC2)c1ccc(Cl)cc1 | 50 | inactive | 
CN1CC2CCC1C(CNC(=O)c1ccc3c(c1)OCCO3)C2 (racemic; form 1) | 81 |  | 
CC(C)N1CCCCN(C(=O)c2ccc3c(c2)OCCO3)CC1 | 25 |  | IC50 [4]: 6.9 µM
O=C(NCC1CC2CCN1CC2)c1ccc(F)cc1 (racemic) | 84 |  | Activity [6]: Active; Activity [7]: Active

From ChEMBL document CHEMBL2062445, “Synthesis and nicotinic receptor activity of chemical space analogues of N-(3R)-1-azabicyclo[2.2.2]oct-3-yl-4-chlorobenzamide (PNU-282,987) and 1,4-diazabicyclo[3.2.2]nonane-4-carboxylic acid 4-bromophenyl ester (SSR180711)” (J Med Chem, 2012)
